Data set [1] relates to Human immunodeficiency virus 1. Briefly: Antiviral activity against pseudotyped HIV-1 expressing luciferase-reporter transfected in HEK293T cells assessed as increase in p24 level in progeny virions by ELISA analysis. The format is functional, organism-based.
Data set [2] deals with Human immunodeficiency virus 1. Briefly: Antiviral activity against pseudotyped HIV-1 expressing luciferase-reporter transfected in HEK293T cells assessed as viral inhibition at late stage incubated for 48 hrs by Single-round infection assay. The data set is classed as functional, organism-based.
Data set [3] is described as follows: Selectivity ratio of EC50 for wild type HIV-1 IIIB infected in human MT4 cells to EC50 for HIV-2 ROD infected in human MT-4 cells assessed as protection against virus-induced cytopathic effect incubated for 5 days by spectrophotometric based MTT assay. The format is functional. The following applies: time 5 day.
Data set [4] has as its target T1, Structural capsid protein (Human immunodeficiency virus 1, UniProt Q76129). The experiment in a line: Binding affinity to hexameric HIV-1 NL4.3 capsid protein assessed as dissociation constant by SPR assay.
A short description of data set [5]: Selectivity index, ratio of CC50 for human MT4 cells to EC50 for wild type HIV-1 IIIB infected in human MT4 cells. The data set is classed as toxicity, cell-based. To be noted: read-out: Selectivity Index.
For data set [6], the system named is Human immunodeficiency virus 1. The experiment in a line: Anti-HIV activity against wild type HIV-1 IIIB infected in human MT4 cells assessed as protection against virus-induced cytopathic effect incubated for 5 days by spectrophotometric based MTT assay. The following applies: Human immunodeficiency virus 1, IIIB, MT4, 120 h. The format is functional, organism-based.

Data set [7] concerns the target Structural capsid protein (Human immunodeficiency virus 1) (UniProt Q76129). Briefly: Binding affinity to HIV-1 hexameric capsid protein assessed as reduction in NUP153 binding to capsid protein by competition assay based SPR analysis. The following applies: filed as modulator.
Data set [8] addresses Human immunodeficiency virus type 1 reverse transcriptase (Human immunodeficiency virus 1) (UniProt Q72547). The experiment in a line: Inhibition of HIV1 reverse transcriptase at 13 nM incubated for 1 hr by ELISA analysis.
Data set [9] deals with Structural capsid protein (Human immunodeficiency virus 1) (UniProt Q76129). The experiment in a line: Binding affinity to HIV-1 hexameric capsid protein assessed as reduction in CPSF6 binding to capsid protein by competition assay based SPR analysis. To be noted: filed as modulator.
Structural capsid protein (Human immunodeficiency virus 1), sequence (Q76129 as listed by the source): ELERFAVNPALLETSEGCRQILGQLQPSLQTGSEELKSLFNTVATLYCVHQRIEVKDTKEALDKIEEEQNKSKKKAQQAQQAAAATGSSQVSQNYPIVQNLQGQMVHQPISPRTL
For a further data set, the system named is MT4. The experiment in a line: Cytotoxicity against human MT4 cells assessed as reduction in cell viability incubated for 5 days by spectrophotometric based MTT assay. The format is functional. To be noted: MT4, 120 h, time 5 day.
Data set [10] relates to Human immunodeficiency virus 1. Briefly: Antiviral activity against pseudotyped HIV-1 expressing luciferase-reporter transfected in HEK293T cells assessed as viral inhibition at early stage incubated for 48 hrs by Single-round infection assay. The data set is classed as functional, organism-based.
Data set [11] concerns the target T1, Structural capsid protein. The experiment in a line: Binding affinity to monomeric HIV-1 NL4.3 capsid protein assessed as dissociation constant by SPR assay.
Data set [12] is described as follows: Selectivity index, ratio of CC50 for human MT4 cells to EC50 for HIV-2 ROD infected in human MT-4 cells. The data set is classed as toxicity, cell-based. The following applies: read-out: Selectivity Index.
Data set [13] deals with Human immunodeficiency virus 2. The experiment in a line: Anti-HIV activity against HIV-2 ROD infected in human MT-4 cells assessed as protection against virus-induced cytopathic effect incubated for 5 days by spectrophotometric based MTT assay. The data set is classed as functional, organism-based. To be noted: Human immunodeficiency virus 2, ROD, MT4, 120 h.
Data set [14] can be described thus: Metabolic stability in human liver microsomes assessed as intrinsic clearance at 1 uM incubated for 60 mins by LC-MS/MS analysis. The data set is classed as ADME, Microsome. To be noted: read-out: CLH.
A short description of data set [15]: Metabolic stability in human liver microsomes assessed as half life at 1 uM incubated for 60 mins by LC-MS/MS analysis. The format is ADME, Microsome.
The target in data set [16] is Human immunodeficiency virus type 1 reverse transcriptase (Human immunodeficiency virus 1) (UniProt Q72547). The experiment in a line: Inhibition of HIV1 reverse transcriptase at 24 nM incubated for 1 hr by ELISA analysis.
Data set [17] shares this target. Briefly: Inhibition of HIV1 reverse transcriptase at 20 nM incubated for 1 hr by ELISA analysis.
Data set [18] concerns the target Structural capsid protein (Human immunodeficiency virus 1) (UniProt Q76129). The experiment in a line: Binding affinity to hexameric HIV-1 NL4.3 capsid protein assessed as dissociation rate (Koff) by SPR assay. To be noted: filed as modulator.
The target is the same in data set [19]. The experiment in a line: Binding affinity to hexameric HIV-1 NL4.3 capsid protein assessed as residence time by SPR assay. To be noted: filed as modulator.
Data set [20] has the same target. Briefly: Binding affinity to monomeric HIV-1 NL4.3 capsid protein assessed as dissociation rate (Koff) by SPR assay. The following applies: filed as modulator.
The test system of data set [21] is Human immunodeficiency virus 1. The experiment in a line: Anti-HIV activity against HIV-1 IIIB infected in human MT4 cells assessed as protection against virus-induced cytopathic effect incubated for 5 days by spectrophotometric based MTT assay. To be noted: Human immunodeficiency virus 1, IIIB, MT4, 120 h.
In data set [22] the target is Structural capsid protein (Human immunodeficiency virus 1) (UniProt Q76129). Briefly: Binding affinity to monomeric HIV-1 NL4.3 capsid protein assessed as residence time by SPR assay. The following applies: filed as modulator.
In data set [23] the target is Human immunodeficiency virus type 1 reverse transcriptase (Human immunodeficiency virus 1) (UniProt Q72547). The following applies: dose 10.0 nM, time 1.0 hrs.

Structures are written as SMILES. pEC50, pKd: −log10 of the molar value. Active and inactive are the calls of the source. The rule behind the calls is not given here.

T1 sequence (Q76129 whole entry): as the sequence (Q76129 as listed by the source) above

Regarding `CN(C(=O)[C@H](Cc1cc(F)cc(F)c1)NC(=O)Cc1c[nH]c2ccc([N+](=O)[O-])cc12)c1ccc2scnc2c1`, the result in data set [1], in data set [2], in data set [7], in data set [9] and in data set [10] was Active. Also, the “Ratio EC50” value in [3] is 0.05. For the same compound, the pKd in [4] was 7.06; in data set [11] it was 6.82. In addition, the selectivity ratio stood at 4460 in data set [5] and 220 in data set [12]. Further, the results for the pEC50 in data set [6] and in data set [13] were 8.20 and 6.89, respectively. Also, the inhibition result in [8] is “inactive”. In addition, in the data set on MT4, the cytotoxic concentration (CC50) worked out at 28400 nM.
For the compound `CN(C(=O)[C@H](Cc1cc(F)cc(F)c1)NC(=O)Cc1c[nH]c2ccc(N)cc12)c1ccc2scnc2c1`, the result in [1] was inactive. Moreover, the outcome in [2], in data set [7], in [9] and in data set [10] was Active. Besides, the “Ratio EC50” value in data set [3] was found to be 0.05. For the same compound, the results for the pKd in [4] and in data set [11] were 7.02 and 6.71, respectively. For the same compound, the selectivity ratio in [5] turned out to be 16100; in data set [12], 831. In addition, the pEC50 in data set [6] was 7.92; in [13] it was 6.64. Further, the CLint scaled at 1 µM in data set [14] is 20.2 mL/min/kg. Also, in [15], the half-life at 1 µM came to 68.5 min. The CC50 in the data set with MT4 came to 192000 nM. For the same compound, the inhibition entry in data set [16] was “inactive”.
Consider `CN(C(=O)[C@H](Cc1cc(F)cc(F)c1)NC(=O)Cc1c[nH]c2cc(F)c(F)cc12)c1ccc2scnc2c1`, for which the result in [1], in [2], in data set [7], in data set [9] and in data set [10] was Active. Besides, the inhibition entry in data set [17] is “inactive”. The “Ratio EC50” value in data set [3] is reported as 0.05. Besides, the results for the pKd in [4] and in [11] were 6.52 and 6.57, respectively. The selectivity ratio in data set [5] is 2410; in data set [12], 116. Besides, the negative-log EC50 (pEC50) in data set [6] was 8.01; in [13], 6.69. In addition, the CC50 in the data set with MT4 was determined as 23600 nM.
On to `Cc1[nH]c2ccccc2c1CC(=O)N[C@@H](Cc1ccccc1)C(=O)N(C)c1ccccc1`, for which the K in [18] was 4.48 10^-1/s; in data set [20], 2.21 10^-1/s. Moreover, the values for the TIME in data set [19] and in data set [22] were 0.000617 h and 0.00125 h, respectively. The pEC50 was 5.98 in data set [6], 6.10 in data set [21] and 5.55 in data set [13]. In addition, the CLint scaled at 1 µM in data set [14] amounted to 2110 mL/min/kg. Also, the half-life at 1 µM in data set [15] came out at 0.7 min. Also, in the data set with MT4, the half-maximal cytotoxic concentration (CC50) was found to be 134000 nM.
With `Cc1cc(/C=C/C#N)cc(C)c1Nc1ccnc(Nc2ccc(C#N)cc2)n1`, the inhibition result in [23] was “Active”.

(Values after ChEMBL document CHEMBL6083251, “"Pseudosubstrate Envelope"/Free Energy Perturbation-Guided Design and Mechanistic Investigations of Benzothiazole HIV Capsid Modulators with High Ligand Efficiency” (J Med Chem, 2024).)
